Laboratory results as given in a compilation of properties of binary mixtures (doi:10.1080/00986445.2015.1114477).

Assay: xn = mol fraction of the nth substance listed
Details: 100 kPa

CN1CCCC1=O + CCCCCCCCn1cc[n+](C)c1.[Cl-]
x1 = 1
Details | viscosity [mPa·s]
288.15 K | 1.989
298.15 K | 1.679
303.15 K | 1.556
308.15 K | 1.441
313.15 K | 1.323
323.15 K | 1.148
328.15 K | 1.065
333.15 K | 1.029

CN1CCN(C)C1=O + CCCCCCCCn1cc[n+](C)c1.[Cl-]
viscosity [mPa·s]
Details | 288.15 K | 293.15 K | 298.15 K | 303.15 K | 308.15 K | 313.15 K | 318.15 K | 323.15 K | 328.15 K | 333.15 K
x2 = 0 | 2.368 | 2.139 | 1.945 | 1.76 | 1.616 | 1.491 | 1.381 | 1.28 | 1.195 | 1.117
x2 = 0.105 | 7.99 | 6.88 | 5.98 | 5.25 | 4.64 | 4.14 | 3.72 | 3.36 | – | 2.78
x2 = 0.2056 | 29.6 | 24 | 19.66 | – | 14 | 11.99 | 10.25 | 8.93 | 7.84 | 6.92
x2 = 0.3018 | – | 67.9 | 53.2 | 42.4 | 34.3 | 28.2 | 23.45 | 19.75 | 16.69 | 14.54
x2 = 0.3991 | 217 | – | 118.5 | 90.5 | 70.8 | 56.4 | 45.7 | 37.5 | – | 26.3
x2 = 0.4964 | – | 420 | 295 | – | 170.9 | – | – | – | 63.2 | 51.6
x2 = 0.6016 | 1500 | 990 | 669 | 467 | 335 | 245 | 196 | 149.3 | 116 | 91.4
x2 = 0.7007 | – | 1973 | 1290 | 874 | 608 | 431 | 315 | 251 | 191 | –
x2 = 0.7994 | – | – | 2473 | 1632 | – | – | 551 | 404 | 301 | 229

CN1CCCC1=O + CCCCCC[n+]1ccn(C)c1.[Cl-]
x1 = 1
Details | viscosity [mPa·s]
288.15 K | 1.989
293.15 K | 1.853
298.15 K | 1.679
303.15 K | 1.556
308.15 K | 1.441
313.15 K | 1.323
318.15 K | 1.259
323.15 K | 1.148
328.15 K | 1.065
333.15 K | 1.029

CN1CCN(C)C1=O + CCCCCC[n+]1ccn(C)c1.[Cl-]
viscosity [mPa·s]
Details | 288.15 K | 293.15 K | 298.15 K | 303.15 K | 308.15 K | 313.15 K | 318.15 K | 323.15 K | 328.15 K | 333.15 K
x2 = 0 | – | 2.139 | 1.945 | 1.76 | – | 1.491 | 1.381 | 1.28 | – | 1.117
x2 = 0.1007 | – | 5.49 | 4.82 | 4.26 | 3.8 | 3.41 | 3.08 | – | 2.55 | 2.337
x2 = 0.1999 | 18.72 | 15.59 | 13.12 | – | – | 7.42 | 6.47 | 5.7 | 5.07 | 4.54
x2 = 0.2985 | 49.9 | 39.2 | 31.2 | 25.4 | 20.72 | 17.34 | 14.87 | – | 11.09 | –
x2 = 0.3856 | 124.2 | 92.5 | 71.6 | 55.9 | – | 35.7 | 29.2 | 24.3 | 20.29 | 17.2
x2 = 0.4985 | 301 | 214 | 155.5 | 116.4 | 88.9 | 69.2 | 54.9 | – | 37.1 | 29.9
x2 = 0.6069 | 707 | 477 | 332 | 241 | 185 | 138.5 | 106.2 | 82.7 | 64.8 | 52.5
x2 = 0.6969 | 1575 | 1029 | 694 | 478 | 338 | 246 | – | 137.9 | 106.7 | 83.8
x2 = 0.7981 | – | 2308 | 1473 | 978 | 666 | 468 | 335 | 247 | 184 | 141.2
